The values that follow come from patent publication US10752612B2, “PLK4 inhibitors” (LUDWIG INSTITUTE FOR CANCER RESEARCH LTD, priority 2015, dated 2020).

The target of assay [1] is T1, human Plk4 kinase domain (aa 2-275) (Homo sapiens, UniProt O00444).
T1 construct: purified 6×His-tagged human Plk4 kinase domain (aa 2-275); 6xHis; made in house; host or cells: E. coli
T1 sequence (O00444 2-275): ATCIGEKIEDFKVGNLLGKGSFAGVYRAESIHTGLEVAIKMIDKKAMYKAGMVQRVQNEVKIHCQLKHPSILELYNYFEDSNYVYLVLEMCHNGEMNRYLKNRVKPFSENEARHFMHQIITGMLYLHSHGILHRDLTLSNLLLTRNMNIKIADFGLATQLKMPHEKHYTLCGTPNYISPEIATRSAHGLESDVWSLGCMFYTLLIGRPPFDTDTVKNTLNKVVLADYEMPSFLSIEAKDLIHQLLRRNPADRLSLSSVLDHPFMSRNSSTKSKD
As to the kind of experiment: Plk4 kinase assay (ADP-Glo). It is filed as biochemical. The method in brief:
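Enzyme at 2.5-10 nM final, pH 8.0, reacted 4-16 hours at 25° C; ADP generation read by ADP-Glo luminescence. Ki derived from IC50 by Cheng-Prusoff or, for tight binders, Copeland formalism.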
For orientation: ADP-Glo turns the ADP formed in a reaction into a luminescent signal.

In assay [2] the target is T2, inhibitor-resistant mutant Plk4 (G95L) (Homo sapiens, UniProt O00444, G95L).
T2 construct: Plk4 assays used equal volumes of: (1) purified 6×His-tagged human Plk4 kinase domain (aa 2-275); 6xHis; made in house; host or cells: E. coli
The assay is described as follows: Plk4 (G95L) mutant kinase assay. It is filed as biochemical. As for the experimental part:
Kinase assays. […] Reactions were allowed to proceed for 4-16 hours at 25° C. Detection was performed using ADP-Glo reagent (Promega), following manufacturer's instructions. Luminescence was measured on an Infinite M1000 plate reader (Tecan). Data were fit using Prism (GraphPad) and Kis were calculated from IC50 data using the Cheng and Prusoff equation (37) or the Copeland formalism for tight-binding inhibitors (38).

Another assay addresses T3, human Aurora A (Homo sapiens, UniProt O14965).
T3 construct: purchased Millipore
T3 sequence (O14965 1-403): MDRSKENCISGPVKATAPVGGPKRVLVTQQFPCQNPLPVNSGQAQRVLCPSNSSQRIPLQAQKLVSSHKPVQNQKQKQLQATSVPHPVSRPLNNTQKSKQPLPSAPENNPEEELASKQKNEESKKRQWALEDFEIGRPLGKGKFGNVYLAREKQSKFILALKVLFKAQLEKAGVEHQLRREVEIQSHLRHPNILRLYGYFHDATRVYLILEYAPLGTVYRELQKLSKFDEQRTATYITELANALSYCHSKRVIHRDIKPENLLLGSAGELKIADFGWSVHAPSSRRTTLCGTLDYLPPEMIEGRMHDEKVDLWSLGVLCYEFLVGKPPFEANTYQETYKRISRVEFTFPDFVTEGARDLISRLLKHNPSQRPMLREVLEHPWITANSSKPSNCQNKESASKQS
As to the kind of experiment: Aurora A kinase assay (ADP-Glo). It is filed as biochemical. The procedure:
LRRASLG)+inhibitors arrayed in dose response (added as described above). […] Detection, measurement and data analysis were performed as described above.

In the next assay the target is T4, Aurora B (Homo sapiens, UniProt Q96GD4).
T4 construct: Reaction Biology (Malvern, Pa.), contract assay
The assay is described as follows: Aurora B radiometric kinase assay (Reaction Biology). It is filed as biochemical. As for the experimental part:
Aurora B and other radiometric kinase assays were performed by Reaction Biology (Malvern, Pa.).

A further assay deals with T5, TNK1 (Homo sapiens, UniProt Q13470).
T5 construct: Reaction Biology (Malvern, Pa.), contract assay
T5 sequence (Q13470 1-666): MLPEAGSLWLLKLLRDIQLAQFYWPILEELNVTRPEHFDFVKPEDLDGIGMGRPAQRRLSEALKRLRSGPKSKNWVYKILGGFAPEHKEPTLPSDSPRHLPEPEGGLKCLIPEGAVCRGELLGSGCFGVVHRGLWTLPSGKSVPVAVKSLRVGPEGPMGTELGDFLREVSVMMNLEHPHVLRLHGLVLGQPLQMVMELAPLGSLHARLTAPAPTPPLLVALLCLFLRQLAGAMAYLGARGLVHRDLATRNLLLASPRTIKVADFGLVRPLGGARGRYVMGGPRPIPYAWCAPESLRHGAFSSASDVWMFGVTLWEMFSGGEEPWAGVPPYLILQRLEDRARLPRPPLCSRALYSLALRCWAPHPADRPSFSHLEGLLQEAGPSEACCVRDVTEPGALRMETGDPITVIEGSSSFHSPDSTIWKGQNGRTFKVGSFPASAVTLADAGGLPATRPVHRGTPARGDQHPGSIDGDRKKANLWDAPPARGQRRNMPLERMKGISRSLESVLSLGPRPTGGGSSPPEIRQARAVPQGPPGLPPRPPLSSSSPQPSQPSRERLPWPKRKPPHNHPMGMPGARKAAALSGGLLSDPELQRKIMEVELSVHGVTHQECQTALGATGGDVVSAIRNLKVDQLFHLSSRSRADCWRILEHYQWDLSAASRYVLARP
As to the kind of experiment: Radiometric kinase assay, off-target TNK1. It is filed as biochemical. As for the experimental part:
(§1) Aurora B and other radiometric kinase assays were performed by Reaction Biology (Malvern, Pa.). Kinome profiling of centrinone and centrinone-B was performed by DiscoveRx (San Diego, Calif.).

The target of the next assay is T6, LRRK2 (Homo sapiens, UniProt Q5S007).
T6 construct: Reaction Biology (Malvern, Pa.), contract assay
The assay is described as follows: Radiometric kinase assay, off-target LRRK2. The assay is classed as biochemical. The procedure: as §1

For another assay, the target named is ROS/ROS1 (Homo sapiens, UniProt P08922). As to the kind of experiment: Radiometric kinase assay, off-target ROS/ROS1. The assay is classed as biochemical. As for the experimental part: as §1
The next assay has as its target FLT4/VEGFR3 (Homo sapiens, UniProt P35916). As to the kind of experiment: Radiometric kinase assay, off-target FLT4/VEGFR3. It is filed as biochemical. As for the experimental part: as §1
The target of the next assay is T7, RET (Homo sapiens, UniProt P07949).
T7 construct: Reaction Biology (Malvern, Pa.), contract assay
As to the kind of experiment: Radiometric kinase assay, off-target RET. The assay is classed as biochemical. The procedure: as §1

The next assay addresses T8, JAK2 (Homo sapiens, UniProt O60674).
T8 construct: Reaction Biology (Malvern, Pa.), contract assay
The assay is described as follows: Radiometric kinase assay, off-target JAK2. It is filed as biochemical. The procedure: as §1

A further assay has as its target T9, SRPK1 (Homo sapiens, UniProt Q96SB4).
T9 construct: Reaction Biology (Malvern, Pa.), contract assay
The assay is described as follows: Radiometric kinase assay, off-target SRPK1. It is filed as biochemical. The procedure: as §1

The test system of a further assay is centrosomes in cells. As to the kind of experiment: Cellular centrosome depletion (cell line not stated). The assay is classed as cell-based. As to conditions: cellular activity, FIG. 1A. As for the experimental part: Centriole depletion assay for compound screening. 1,500 NIH/3T3 cells or 3,500 HCT116 cells were seeded into 96-well SCREENSTAR microplates (Greiner) and treated with inhibitors in dose response, added from DMSO stocks. After 3 days, cells were fixed directly in the wells with 100% methanol (−20° C., 10 minutes). The fixed cells were washed with PBS and stained with primary antibodies against γ-tubulin and, for a subset of compounds, Cep192. Cells were then stained with Alexa-488 donkey anti-mouse and Alexa-647 goat anti-rabbit secondary antibodies. Cells were imaged using either a Model 500 LumaScope (Etaluma) or an EVOS FL (Advanced Microscopy Group/Life Technologies), and centriole depletion was determined by scoring the percentage of cells without visible γ-tubulin/Cep192 foci.

In a further assay the test system is RPE1 cells. As to the kind of experiment: Passaging assay and flow cytometry, RPE1. As to conditions: RPE1, addition Day 0, washout Day 8. The assay is classed as cell-based, human. The procedure:
Passaging assays. Cells were seeded into 10 cm tissue culture plates at 150,000 (HeLa, NIH/3T3 and RPE1) or 200,000 cells/plate (primary fibroblasts). Compounds were added at the indicated concentrations. At 4-day intervals, cells were harvested, counted using a TC10 cell counter, and re-seeded into new plates at the densities above. Results are from 2 independent experiments.
Flow cytometry. Cells were seeded into 15 cm tissue culture plates such that each plate was 50-80% confluent at the time of harvesting. Cells were de-adhered by trypsinization and pelleted in 15 ml tubes by centrifugation. Each pellet was resuspended in 0.3 mL PBS, and 0.7 mL ice-cold 100% ethanol was added to the tube while gently vortexing. Fixed cells were stored at 4° C. for up to 2 weeks. For DNA content analysis, fixed cells were pelleted, washed twice with PBS, and resuspended in 0.5 mL PBS+2% BSA and Alexa488-conjugated anti-p-H3(Ser10) antibody. Samples were incubated for 1 hour at 4° C., then washed twice with PBS+2% BSA. Pellets were resuspended in 1 mL PBS+2% BSA, 10 μg/ml propidium iodide (Sigma-Aldrich), 500 µg/ml RNAse A (Thermo Scientific). Samples were incubated at 37° C. for 30 minutes, then transferred to 12×75 mm tubes for analysis. Data were acquired using FACSDiva software on a LSR II flow cytometer (BD Biosciences). 50,000 cells were analyzed per condition. Cell cycle fitting was performed using ModFit LT (Verity Software House).
Background: Flow cytometry measures light scatter and fluorescence of single cells or particles in a stream.

A further assay deals with p53. As to the kind of experiment: Western blotting, RPE1. The assay is classed as cell-based, human. The procedure: Western blotting. […] Cell extracts were stored at −80° C. until use.
For p53, p-p53(S33), p-p53(S392), p-p38(T180/Y182), acetyl-p53(K382), LATS2, YAP, MDM2, MAPKAPK-2 and GFP, blocking and antibody incubations were performed in TBS-T+5% non-fat dry milk. For p-YAP(S127), p-p53(S9), p-p53(S15), p-p53(S20), p-p53(S37), p-p53(S315), p21 and p-MAPKAPK-2(T334), blocking and antibody incubations were performed in TBS-T+5% BSA. Detection was performed using HRP-conjugated secondary antibodies (GE Healthcare) with WesternBright Sirius (Advansta) or SuperSignal West Femto (Thermo Scientific) substrates. Membranes were imaged on a ChemiDoc MP system (Bio-Rad). Membranes were stripped and reprobed with antibodies against α-tubulin or GAPDH as loading controls.
On the technique in general: In western blotting, separated proteins are transferred to a membrane and probed.

The next assay has as its system p38. As to conditions: RPE1, osmotic stress. As for the experimental part: MAPKAPK-2 activation assay. RPE1 cells on 10 cm plates were treated with DMSO or 10 μM SB203580 for 2 hours prior to induction of stress.
Western blotting. Asynchronously growing cells from 10 cm plates were harvested at 50-80% confluence and lysed by sonication in RIPA buffer+protease and phosphatase inhibitor cocktail (Thermo Scientific). Cell extracts were stored at −80° C. until use. Before use, concentrations of extracts were normalized using a Bio-Rad Protein Assay (Bio-Rad). For every sample, 25-50 μg protein/lane was run on Mini-PROTEAN gels (Bio-Rad), and transferred to PVDF membranes using a TransBlot Turbo system (Bio-Rad).

Setting [3] is: off-target from DiscoveRx kinome profiling.

Where “and” joins values, the source holds several entries; their conditions need not be identical. Identical values can stand only once.

T8 sequence (O60674 whole entry): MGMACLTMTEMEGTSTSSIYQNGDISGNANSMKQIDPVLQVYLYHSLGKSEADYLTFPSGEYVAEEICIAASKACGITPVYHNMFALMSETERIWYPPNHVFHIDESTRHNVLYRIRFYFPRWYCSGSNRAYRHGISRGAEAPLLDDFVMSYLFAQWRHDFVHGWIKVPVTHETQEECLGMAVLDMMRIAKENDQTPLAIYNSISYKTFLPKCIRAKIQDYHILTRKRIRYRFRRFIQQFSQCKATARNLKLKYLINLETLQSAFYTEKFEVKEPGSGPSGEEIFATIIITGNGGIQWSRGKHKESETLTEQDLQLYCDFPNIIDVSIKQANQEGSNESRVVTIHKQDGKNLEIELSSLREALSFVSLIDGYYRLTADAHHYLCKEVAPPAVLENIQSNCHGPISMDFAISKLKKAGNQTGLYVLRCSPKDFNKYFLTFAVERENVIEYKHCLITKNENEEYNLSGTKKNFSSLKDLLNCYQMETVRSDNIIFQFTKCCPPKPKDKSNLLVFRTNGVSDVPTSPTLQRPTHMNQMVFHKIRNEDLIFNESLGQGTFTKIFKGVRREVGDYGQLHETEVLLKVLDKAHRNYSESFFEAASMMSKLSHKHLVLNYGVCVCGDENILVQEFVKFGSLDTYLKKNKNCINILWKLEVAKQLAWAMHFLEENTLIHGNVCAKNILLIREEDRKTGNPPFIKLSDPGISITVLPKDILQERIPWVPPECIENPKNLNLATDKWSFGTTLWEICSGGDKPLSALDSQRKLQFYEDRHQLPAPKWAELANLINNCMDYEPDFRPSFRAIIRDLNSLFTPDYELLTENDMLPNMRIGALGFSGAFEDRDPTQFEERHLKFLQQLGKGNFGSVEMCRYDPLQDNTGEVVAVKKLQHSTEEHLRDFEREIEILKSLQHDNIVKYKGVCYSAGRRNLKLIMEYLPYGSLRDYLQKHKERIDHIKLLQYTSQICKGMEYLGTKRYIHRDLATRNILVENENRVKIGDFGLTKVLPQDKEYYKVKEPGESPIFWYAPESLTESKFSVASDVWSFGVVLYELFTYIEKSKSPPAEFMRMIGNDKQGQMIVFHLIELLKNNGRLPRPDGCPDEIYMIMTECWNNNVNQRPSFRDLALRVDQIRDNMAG
T4 sequence (Q96GD4 whole entry): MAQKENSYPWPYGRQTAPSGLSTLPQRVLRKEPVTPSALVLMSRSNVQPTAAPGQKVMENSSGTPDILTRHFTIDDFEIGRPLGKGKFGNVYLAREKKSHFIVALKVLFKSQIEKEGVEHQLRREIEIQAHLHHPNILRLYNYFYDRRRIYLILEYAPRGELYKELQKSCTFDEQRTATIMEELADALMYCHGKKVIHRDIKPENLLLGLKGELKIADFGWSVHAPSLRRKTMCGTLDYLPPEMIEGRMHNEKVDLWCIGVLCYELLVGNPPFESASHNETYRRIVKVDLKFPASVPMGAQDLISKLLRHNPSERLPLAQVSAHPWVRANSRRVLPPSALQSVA
T6 sequence (Q5S007 whole entry): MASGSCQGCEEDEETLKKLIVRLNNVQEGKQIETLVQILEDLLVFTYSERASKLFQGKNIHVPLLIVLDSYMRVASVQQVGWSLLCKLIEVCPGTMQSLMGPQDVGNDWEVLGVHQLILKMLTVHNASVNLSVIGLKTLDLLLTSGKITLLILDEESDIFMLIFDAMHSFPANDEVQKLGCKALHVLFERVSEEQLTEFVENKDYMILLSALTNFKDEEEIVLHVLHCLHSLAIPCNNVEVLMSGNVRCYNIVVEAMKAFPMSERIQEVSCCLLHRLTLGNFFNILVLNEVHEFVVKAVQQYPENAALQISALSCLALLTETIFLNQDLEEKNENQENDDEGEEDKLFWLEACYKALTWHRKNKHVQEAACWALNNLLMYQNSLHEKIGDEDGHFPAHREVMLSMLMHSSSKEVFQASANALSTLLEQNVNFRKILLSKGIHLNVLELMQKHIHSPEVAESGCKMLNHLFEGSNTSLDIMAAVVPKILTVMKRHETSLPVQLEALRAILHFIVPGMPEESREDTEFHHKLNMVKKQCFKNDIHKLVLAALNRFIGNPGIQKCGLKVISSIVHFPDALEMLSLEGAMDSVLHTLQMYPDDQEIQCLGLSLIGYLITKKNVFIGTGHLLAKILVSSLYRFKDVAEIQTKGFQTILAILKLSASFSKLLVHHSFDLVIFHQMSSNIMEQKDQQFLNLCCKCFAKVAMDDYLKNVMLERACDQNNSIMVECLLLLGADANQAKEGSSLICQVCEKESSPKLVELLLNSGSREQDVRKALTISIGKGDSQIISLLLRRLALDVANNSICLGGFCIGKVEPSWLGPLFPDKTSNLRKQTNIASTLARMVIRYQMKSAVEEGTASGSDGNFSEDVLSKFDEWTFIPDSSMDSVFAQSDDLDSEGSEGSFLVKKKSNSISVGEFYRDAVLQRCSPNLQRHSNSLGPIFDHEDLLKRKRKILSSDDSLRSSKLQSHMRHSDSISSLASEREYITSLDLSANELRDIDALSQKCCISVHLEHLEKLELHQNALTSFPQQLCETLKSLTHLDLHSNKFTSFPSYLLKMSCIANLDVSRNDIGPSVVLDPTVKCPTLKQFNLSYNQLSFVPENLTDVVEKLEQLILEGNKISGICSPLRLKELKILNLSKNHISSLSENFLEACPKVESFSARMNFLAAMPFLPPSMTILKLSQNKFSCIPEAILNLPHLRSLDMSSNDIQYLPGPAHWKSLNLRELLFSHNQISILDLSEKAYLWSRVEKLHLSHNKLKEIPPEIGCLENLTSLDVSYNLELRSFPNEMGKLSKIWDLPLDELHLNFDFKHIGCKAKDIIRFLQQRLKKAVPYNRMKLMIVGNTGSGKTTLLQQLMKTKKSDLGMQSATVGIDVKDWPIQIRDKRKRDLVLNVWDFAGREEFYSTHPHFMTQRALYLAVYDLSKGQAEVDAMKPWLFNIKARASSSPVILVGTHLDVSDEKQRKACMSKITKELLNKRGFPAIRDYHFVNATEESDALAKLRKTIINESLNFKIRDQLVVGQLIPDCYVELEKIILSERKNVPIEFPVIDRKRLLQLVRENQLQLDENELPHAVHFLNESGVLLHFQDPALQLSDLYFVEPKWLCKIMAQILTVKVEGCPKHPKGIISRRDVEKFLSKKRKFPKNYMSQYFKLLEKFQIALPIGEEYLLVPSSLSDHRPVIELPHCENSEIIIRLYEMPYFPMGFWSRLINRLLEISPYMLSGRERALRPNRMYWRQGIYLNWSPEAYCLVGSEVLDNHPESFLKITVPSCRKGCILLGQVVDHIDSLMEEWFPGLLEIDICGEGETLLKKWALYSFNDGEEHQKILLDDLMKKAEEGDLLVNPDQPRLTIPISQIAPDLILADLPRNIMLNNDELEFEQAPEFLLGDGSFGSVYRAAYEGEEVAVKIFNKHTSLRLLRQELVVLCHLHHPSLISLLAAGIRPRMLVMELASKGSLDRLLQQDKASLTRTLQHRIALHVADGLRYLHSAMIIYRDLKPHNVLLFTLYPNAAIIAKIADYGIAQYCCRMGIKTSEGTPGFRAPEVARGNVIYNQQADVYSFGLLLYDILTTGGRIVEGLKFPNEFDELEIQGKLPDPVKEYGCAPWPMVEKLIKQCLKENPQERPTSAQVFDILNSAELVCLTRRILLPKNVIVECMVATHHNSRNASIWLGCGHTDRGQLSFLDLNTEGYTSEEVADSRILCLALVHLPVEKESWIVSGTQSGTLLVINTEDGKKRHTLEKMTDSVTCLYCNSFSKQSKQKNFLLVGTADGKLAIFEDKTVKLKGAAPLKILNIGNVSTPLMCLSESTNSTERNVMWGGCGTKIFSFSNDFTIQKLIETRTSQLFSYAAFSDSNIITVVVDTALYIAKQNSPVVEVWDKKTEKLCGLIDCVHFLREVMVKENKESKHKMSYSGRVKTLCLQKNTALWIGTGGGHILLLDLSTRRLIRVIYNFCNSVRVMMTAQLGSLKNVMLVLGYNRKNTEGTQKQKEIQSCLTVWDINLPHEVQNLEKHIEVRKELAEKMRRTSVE
T9 sequence (Q96SB4 whole entry): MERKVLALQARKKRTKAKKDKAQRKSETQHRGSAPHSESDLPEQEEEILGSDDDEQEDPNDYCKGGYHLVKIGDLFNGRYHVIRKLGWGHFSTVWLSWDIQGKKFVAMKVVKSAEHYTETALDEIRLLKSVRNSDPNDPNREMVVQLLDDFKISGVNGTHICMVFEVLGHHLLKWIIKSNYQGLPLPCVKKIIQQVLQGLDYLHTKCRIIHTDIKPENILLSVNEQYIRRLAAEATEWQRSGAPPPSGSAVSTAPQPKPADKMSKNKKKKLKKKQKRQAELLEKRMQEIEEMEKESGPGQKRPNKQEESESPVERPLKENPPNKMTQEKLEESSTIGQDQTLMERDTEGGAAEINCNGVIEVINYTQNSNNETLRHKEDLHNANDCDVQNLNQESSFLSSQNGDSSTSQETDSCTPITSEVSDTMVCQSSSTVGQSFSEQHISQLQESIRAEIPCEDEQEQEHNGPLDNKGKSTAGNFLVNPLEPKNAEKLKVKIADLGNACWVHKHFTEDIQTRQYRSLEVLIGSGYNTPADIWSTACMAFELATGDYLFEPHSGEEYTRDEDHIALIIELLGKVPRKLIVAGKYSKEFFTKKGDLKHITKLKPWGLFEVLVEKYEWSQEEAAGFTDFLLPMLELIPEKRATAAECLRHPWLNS
T2 sequence (O00444 2-275 G95L): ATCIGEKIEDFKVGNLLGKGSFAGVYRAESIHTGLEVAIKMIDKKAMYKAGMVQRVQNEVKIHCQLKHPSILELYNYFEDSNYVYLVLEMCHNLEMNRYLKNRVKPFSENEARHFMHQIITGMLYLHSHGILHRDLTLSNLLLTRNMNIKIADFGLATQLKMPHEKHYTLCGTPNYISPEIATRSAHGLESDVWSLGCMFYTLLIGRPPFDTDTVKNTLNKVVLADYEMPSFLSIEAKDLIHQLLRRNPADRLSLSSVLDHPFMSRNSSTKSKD

In general, Ki refers to the dissociation constant of the complex between target and ligand, obtained from inhibition or displacement. Low readings indicate a stronger hold on the target, high ones a looser hold on the target. For the compound `COc1c(Nc2cc(C)[nH]n2)nc(Sc2ccc(S(=O)(=O)Cc3cccc([N+](=O)[O-])c3F)cc2F)nc1N1CCCCC1` [Centrinone-B, 2-((2-fluoro-4-((2-fluoro-3-nitrobenzyl)sulfonyl)phenyl)thio)-5-methoxy-N-(5-methyl-1H-pyrazol-3-yl)-6-(piperidin-1-yl)pyrimidin-4-amine], the Ki in [1] is 0.6 nM and 0.59 nM; in assay [2], 498 nM; on human Aurora A, 1240 nM; on Aurora B it was 5600 nM; at TNK1 (setting [3]) it was 6.04 nM; at LRRK2 (setting [3]), 7.66 nM. The Ki on ROS/ROS1 (setting [3]) is 90.1 nM; at FLT4/VEGFR3 (setting [3]), 58 nM; at RET (setting [3]) it was 195 nM; at JAK2 (setting [3]), > 500 nM; at SRPK1 (setting [3]), > 500 nM. In addition, the “Plk4 selectivity, Ki(Plk4 G95L)/Ki(Plk4)” value in [2] amounted to 847. Further, on human Aurora A, the “Plk4 selectivity, Ki(Aurora A)/Ki(Plk4)” value was 2108. For the same compound, the “Plk4 selectivity, Ki(Aurora B)/Ki(Plk4)” value at Aurora B came to 9523. In addition, the “Plk4 selectivity, Ki(TNK1)/Ki(Plk4)” value at TNK1 amounted to 10. For the same compound, on LRRK2, the “Plk4 selectivity, Ki(LRRK2)/Ki(Plk4)” value came to 13. In addition, on ROS/ROS1, the “Plk4 selectivity, Ki(ROS/ROS1)/Ki(Plk4)” value is 153. The “Plk4 selectivity, Ki(FLT4/VEGFR3)/Ki(Plk4)” value at FLT4/VEGFR3 is listed as 99. The “Plk4 selectivity, Ki(RET)/Ki(Plk4)” value at RET came out at 332. Also, on JAK2, the “Plk4 selectivity, Ki(JAK2)/Ki(Plk4)” value was >847. Moreover, the “Plk4 selectivity, Ki(SRPK1)/Ki(Plk4)” value on SRPK1 is >847. The compound further displayed a centrosome depletion at in the assay with centrosomes in cells of 500 nM.
For the compound `CCOc1cc(C(C)(C)C)ccc1C1=N[C@@](C)(c2ccc(Cl)cc2)[C@@](C)(c2ccc(Cl)cc2)N1C(=O)N1CCN(CCCS(C)(=O)=O)CC1` [R7112], in the assay on RPE1 cells, the proliferation after washout result is “led to resumption of proliferation”. In addition, in the assay on p53, the p53 levels result is listed as “raised p53 levels”.
For the compound `C[S+]([O-])c1ccc(-c2nc(-c3ccncc3)c(-c3ccc(F)cc3)[nH]2)cc1` (stereo not shown) [SB203580], the “phosphorylation of MAPKAPK-2 by p38” value in the assay with p38 is recorded as “blocks phosphorylation of MAPKAPK-2”.
